We go through one molecule from article PMC8325370 (Proceedings of the National Academy of Sciences of the …, 2021).

In the experiment the target is T1, homomeric A2 channels (wt CNGA2) (Rattus norvegicus, UniProt Q00195).
T1 sequence (Q00195 1-664): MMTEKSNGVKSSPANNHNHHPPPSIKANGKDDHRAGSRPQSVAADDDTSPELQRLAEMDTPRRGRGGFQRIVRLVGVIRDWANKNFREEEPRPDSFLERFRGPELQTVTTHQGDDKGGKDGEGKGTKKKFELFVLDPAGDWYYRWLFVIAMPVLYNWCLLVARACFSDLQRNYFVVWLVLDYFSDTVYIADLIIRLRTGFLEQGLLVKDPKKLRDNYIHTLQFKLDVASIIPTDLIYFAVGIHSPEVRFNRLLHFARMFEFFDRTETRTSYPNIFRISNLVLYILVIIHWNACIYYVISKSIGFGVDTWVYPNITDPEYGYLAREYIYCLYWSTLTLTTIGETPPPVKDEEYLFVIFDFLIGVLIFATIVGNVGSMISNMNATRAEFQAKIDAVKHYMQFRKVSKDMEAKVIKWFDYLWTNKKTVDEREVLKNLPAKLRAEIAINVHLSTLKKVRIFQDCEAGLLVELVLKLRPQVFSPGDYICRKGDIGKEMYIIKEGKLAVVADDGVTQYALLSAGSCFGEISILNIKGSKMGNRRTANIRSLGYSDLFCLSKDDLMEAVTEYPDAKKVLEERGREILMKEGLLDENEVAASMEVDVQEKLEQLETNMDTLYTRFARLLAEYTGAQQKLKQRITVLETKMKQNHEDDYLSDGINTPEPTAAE
The experiment can be described thus: inside-out patch clamp, macroscopic current. Type of experiment: biochemical. The note with it: agonist; +100 mV, 150 mM KCl, pH 7.4; Xenopus oocytes. (In general: Patch clamp records ionic current or voltage across a cell membrane.)

Consider `Nc1nc2c(ncn2[C@@H]2O[C@@H]3COP(=O)(O)O[C@H]3[C@H]2O)c(=O)[nH]1` [cGMP], for which the EC50 result is listed as “concentration–activation relationships to homomeric A2 channels”.
